For assay [1], the system named is RAT. Description: Diuretic activity in the rat (hourly urine volume, sodium and potassium assay). The class given is in vivo. Conditions: po; R = RAT; diuretic activity; read-out: Dose minimale active. From the text:
d'urine sont déterminés toutes les heures. Le dosage de sodium et du potassium est effectué par spectrophotométrie.

The test system of assay [2] is plasmas riches en plaquettes provenant de sang de rat. Description: Platelet anti-aggregation in vitro, ADP-induced (Born aggregometer). The assay is classed as cell-based. The following applies: in vitro, aggregating agent ADP, rat platelet-rich plasma, 37°; M not defined in the text; mM printed only in the TICLOPIDINE line. How it is done: Les études ont été réalisées sur des plasmas riches en plaquettes provenant de sang de rat, l'agrégation étant induite par addition d'acide Adénosine diphosphorique. Les courbes néphélométriques d'agrégation sont obtenues en utilisant un agrégomètre de type BORN, le plasma étant placé en incubation à 37° avec agitation continue de 1100 t/mn (cf. BORN G.V.R et CROSS J. - J. Physiol. 168 (1962) 178.

Assay [3] addresses T1, ECHANGEUR D'ANIONS (Homo sapiens, UniProt P02730).
T1 construct: systèmes de transport du sodium et du potassium des érythrocytes humains; endogenous in cells; host or cells: human erythrocytes
T1 sequence (P02730 1-911): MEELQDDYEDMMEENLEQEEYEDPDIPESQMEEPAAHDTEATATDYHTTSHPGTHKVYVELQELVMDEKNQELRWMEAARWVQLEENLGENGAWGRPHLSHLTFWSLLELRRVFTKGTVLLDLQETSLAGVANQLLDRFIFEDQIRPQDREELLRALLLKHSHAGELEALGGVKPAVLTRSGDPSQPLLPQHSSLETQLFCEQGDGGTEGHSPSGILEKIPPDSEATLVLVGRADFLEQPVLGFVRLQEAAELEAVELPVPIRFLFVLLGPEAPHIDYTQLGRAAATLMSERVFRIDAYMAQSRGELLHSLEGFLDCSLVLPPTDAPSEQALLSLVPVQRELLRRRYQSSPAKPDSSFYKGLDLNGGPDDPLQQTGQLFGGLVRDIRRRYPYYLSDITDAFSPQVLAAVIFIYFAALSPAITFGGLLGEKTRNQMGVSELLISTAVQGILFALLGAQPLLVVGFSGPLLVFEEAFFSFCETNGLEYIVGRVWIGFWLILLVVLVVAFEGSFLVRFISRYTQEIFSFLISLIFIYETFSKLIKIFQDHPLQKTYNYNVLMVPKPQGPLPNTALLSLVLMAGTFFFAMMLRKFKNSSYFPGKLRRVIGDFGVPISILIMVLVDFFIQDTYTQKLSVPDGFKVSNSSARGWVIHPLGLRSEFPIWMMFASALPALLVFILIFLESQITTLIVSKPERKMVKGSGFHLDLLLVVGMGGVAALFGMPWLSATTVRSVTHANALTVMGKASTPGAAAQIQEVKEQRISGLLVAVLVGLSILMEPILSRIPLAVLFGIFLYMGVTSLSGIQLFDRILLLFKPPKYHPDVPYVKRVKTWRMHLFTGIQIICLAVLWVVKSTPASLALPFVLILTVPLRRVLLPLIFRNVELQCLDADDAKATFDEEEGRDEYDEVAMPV
The assay can be described thus: Anion exchanger of human erythrocytes. The assay is classed as cell-based, ERYTHROCYTES HUMAINS. Conditions: read-out: EFFET SUR L'ECHANGEUR D'ANIONS IC 50. From the text: Cet effet a été étudié selon la méthodologie décrite par G. GARAY et coll. dans Naunyn-Schmidberg's Arch. Pharmakol. 334 (1986) 202-209 et dans Bioch. Pharm. 33 (1984) 2013-2020.

In assay [4] the target is T2, lipoxygénase de soja (Glycine max, UniProt P08170).
T2 sequence (P08170 1-839): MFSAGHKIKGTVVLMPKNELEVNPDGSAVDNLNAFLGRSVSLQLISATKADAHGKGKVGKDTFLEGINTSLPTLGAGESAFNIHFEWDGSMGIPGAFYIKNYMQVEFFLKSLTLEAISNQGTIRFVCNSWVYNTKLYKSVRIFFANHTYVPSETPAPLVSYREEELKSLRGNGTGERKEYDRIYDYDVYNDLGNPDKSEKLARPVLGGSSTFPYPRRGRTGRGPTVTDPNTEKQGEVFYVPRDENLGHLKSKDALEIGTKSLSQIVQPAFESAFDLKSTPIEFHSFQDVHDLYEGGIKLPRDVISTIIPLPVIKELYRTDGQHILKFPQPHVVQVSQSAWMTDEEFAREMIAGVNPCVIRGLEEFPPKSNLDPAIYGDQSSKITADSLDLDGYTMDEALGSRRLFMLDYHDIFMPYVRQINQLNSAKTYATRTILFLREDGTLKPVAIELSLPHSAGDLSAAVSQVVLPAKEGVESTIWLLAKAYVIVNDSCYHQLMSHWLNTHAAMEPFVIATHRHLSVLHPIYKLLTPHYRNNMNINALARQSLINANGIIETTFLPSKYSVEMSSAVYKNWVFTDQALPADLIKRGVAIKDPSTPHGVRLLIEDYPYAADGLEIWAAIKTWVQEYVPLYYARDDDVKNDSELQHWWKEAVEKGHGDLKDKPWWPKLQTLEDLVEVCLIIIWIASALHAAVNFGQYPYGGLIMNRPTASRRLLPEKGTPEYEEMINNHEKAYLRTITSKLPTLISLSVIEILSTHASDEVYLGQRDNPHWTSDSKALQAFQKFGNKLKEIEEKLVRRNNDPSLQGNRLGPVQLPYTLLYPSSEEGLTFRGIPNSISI
The assay can be described thus: Anti-lipoxygenase action on soybean lipoxygenase. The assay is classed as biochemical. From the text:
L'action anti-lipoxygénase a été étudiée sur la lipoxygénase de soja selon la méthode décrite par W.L SMITH et W.E LANDS (J. Biol. Chem. 247 (1972) 1038-1047)

`Cc1ccc(O)c(CCOc2ccccc2)c1` [ex 36]: the minimal effective dose in assay [1] stood at 100 mg/kg. Moreover, the “M à 50” value in assay [2] is “inactif”. Further, the IC50 in assay [3] came out at 800 nM. Further, the “ACTIVITE ANTI-LIPOXYGENASE IC 50” value in assay [4] is listed as “Inactif”.

The values above are taken from patent publication EP0428423A2, “Aryloxy alkyl benzenes, processes for their preparation and pharmaceutical compositions containing them” (LIPHA S.A., priority 1989, dated 1991).
